What follows are compounds tested on acyl-CoA: cholesterol acyltransferase (ACAT) (assay: ACAT inhibiting effect in vitro (rat liver microsome, method of Ross et al.)). Conditions: rat liver microsome (Sprague-Dawley) enzyme fraction, 100 μM [14C]oleoyl-CoA, 37° C., 4 minutes; stated in words only.
Format: biochemical
Description: ACAT inhibiting activities were determined according to the improved test method in vitro reported by Ross et al. [A. C. Ross etal., J. Biol. Chem., 259, 815-819(1984)].
According to the procedure described in A. C. Ross et al., J. Biol. Chem., 257, 2453-2459(1982), rat liver microsome was prepared from a rat of Sprague-Dawley strain fasted overnight to make an enzyme fraction. To a 0.15M potassium phosphate buffer solution (pH 7.4) containing 100 μM of [14C]oleoyl-CoA, 2 mM of dithiothreitol and 80 μM of bovine serum albumin were added 60-100 μg of the microsome fraction, and a 5 μl solution of a test compound in dimethylsulfoxide (2.5% v/v) was added to the above phosphate buffer solution to make 200 μl. The mixture was warmed at 37° C. for 4 minutes and then the enzyme reaction was stopped by adding 1 ml of ethanol under stirring. To the reaction mixture were added 2 ml of hexane. After stirring, 1 ml of a hexane solution was taken out and the solvent was evaporated in a stream of nitrogen. Cholesteryl oleate resulted from the enzyme reaction was separated by thin layer chromatography through silica gel using a 85:15:1 mixture of hexane, diethyl ether and acetic acid as a developing solvent. An ACAT activity was determined by measuring radioactivity and a inhibiting rate (%) was calculated by comparing a control activity with that of the test compound at given concentrations.

| SMILES | ACAT inhibiting activity |
| --- | --- |
| CCc1cccc(SC)c1NC(=O)CC1c2ccccc2Oc2ccccc21 [Example 9, N-(2-Ethyl-6-methylthiophenyl)-2-(9H-xanthen-9-yl)acetamide] | excellent inhibiting activity |
| CCc1cccc(CC)c1NC(=O)CC1c2ccccc2Oc2ccccc21 [Example 2, N-(2,6-Diethylphenyl)-2-(9H-xanthen-9-yl)acetamide] | excellent inhibiting activity |
| CCc1cccc(CSC)c1NC(=O)CC1c2ccccc2Oc2ccccc21 [Example 3, N-(2-Ethyl-6-methylthiomethylphenyl)-2-(9H-xanthen-9-yl)acetamide] | excellent inhibiting activity |
| CCc1cccc(Sc2ccccc2)c1NC(=O)CC1c2ccccc2Oc2ccccc21 [Example 11, N-(2- Ethyl-6-phenylthiophenyl)-2-(9H-xanthen-9-yl)acetamide] | excellent inhibiting activity |

Continued, values first:

| ACAT inhibiting activity | SMILES |
| --- | --- |
| excellent inhibiting activity | CC(C)c1cccc(C(C)C)c1NC(=O)C(C)C1c2ccccc2Oc2ccccc21 (stereo not drawn) [Example 16, N-[2,6-Bis(1-methylethyl)phenyl]-2-(9H-xanthen-9-yl)propanamide] |
| excellent inhibiting activity | CCc1cccc(SC(C)C)c1NC(=O)CC1c2ccccc2Oc2ccccc21 [Example 10, N-(2-Ethyl-6-isopropylthiophenyl)-2-(9H-xanthen-9-yl)acetamide] |
| excellent inhibiting activity | CC(C)c1cccc(C(C)C)c1NC(=O)CC1(C)c2ccccc2Oc2ccccc21 [Example 18-B, N-[2,6-bis(1-methylethyl)phenyl]-2-(9-methyl-9H-xanthen-9-yl)acetamide] |
| excellent inhibiting activity | CCc1cccc(OC(C)C)c1NC(=O)CC1c2ccccc2Oc2ccccc21 [Example 25, N-(2-Ethyl-6-isopropoxyphenyl)-2-(9H-xanthen-9-yl)acetamide] |
| excellent inhibiting activity | CC(C)c1cccc(C(C)C)c1NC(=O)CC1c2ccccc2Oc2ccccc21 [Example 1, N-[2,6-Bis (1-methylethyl)phenyl]-2-(9H-xanthen-9-yl)acetamide] |
